Data taken from PubChem BioAssay AID2060510 (Molecular Pharmacology Branch, DTP, NCI, 2025).
pIC50: −log10 of the molar value.

System: 439559-082-T-J2-PDC spheroids viability
Test: Anticancer human tumor 439559-082-T-J2-PDC patient-derived colon adenocarcinoma cell line growth inhibition [GQUAD]
Details: for pIC50: curve of first compound; for viability, T/C: stronger effect = lower value
Excerpt: DNA G-quadruplex Stabilizer Agents in Combinations in Complex Spheroids
A high-throughput screen of multi-cell type tumor spheroids was designed to identify active combinations of DNA G-quadruplex stabilizer agents and targeted small molecules. Complex spheroids include a stromal component modeled by human endothelial cells (HUVEC) and fibroblasts modeled by human mesenchymal stem cells (MSCs). The concentration ranges selected for each drug and investigational agent were based upon clinically achievable concentrations if the clinical Cmax of the agent was known.
Compounds. The drugs and investigational agents: pidnarulex (CX-5461; NSC782164), APTO-253 (NSC789042), BRACO-19 (NSC847499), peposertib (NSC802822), ceralasertib (NSC780249), elimusertib (NSC800525), camonsertib (NSC841442), AZD-1390 (NSC803789), olaparib (NSC753686), talazoparib (NSC767125), ART-558 (NSC835418), sotorasib (NSC818433), MRTX-1133 (NSC836407), SN-38 (NSC673596), topotecan (NSC609699), etoposide (NSC141540), doxorubicin (NSC123127), gemcitabine (NSC613327), 5-fluorouracil (NSC19893), paclitaxel (NSC125973), vemurafenib (NSC761431), panobinostat (NSC761190), R-306465 (JNJ-16241199; NSC773264), adavosertib (NSC754352), TP-3654 (NSC805149), carboplatin (NSC241240), KSQ-4279 (NSC840948), and staurosporine (NSC755774) were obtained from the National Cancer Institute (NCI) Developmental Therapeutics Program Chemical Repository (34). The FDA-approved anticancer drug set is available from the NCI Developmental Therapeutics Program. […] The stock solutions were prepared in dimethyl sulfoxide (DMSO, Sigma-Aldrich, St. Louis, MO, cat. D2650) at 800-fold the tested concentration and stored at -70 degrees C prior to their use. All drugs and investigational agents were tested over a range starting from a high concentration at or near the clinical Cmax and decreasing in half-log increments. If the clinical Cmax for an agent had not been determined, the highest concentration tested was 10 microM.
2.3 Cell Culture. All cells were maintained in an incubator at 37 degrees C and 5% CO2 with 95% humidity. The PDC lines were cultured according to standard operating procedures established by the NCI PDMR. All PDCs were thawed and cultured in Matrigel-coated flasks prepared with a working solution of 1X Ham's F-12 nutrient mix, without supplementation (Invitrogen, cat. 11765054), 100 U/mL penicillin-streptomycin (Invitrogen, cat. 15140122), and 2.5% Matrigel (Corning Inc., cat. 354248) for the first three passages. The 857933-349-R-J2-PDC line was cultured in 6C/Colon 1B media, which includes advanced DMEM/F-12 (Thermo Fisher Scientific, cat. 12634028), 10 mM HEPES (Thermo Fisher Scientific, cat. 15630080), 1X GlutaMAX supplement (Thermo Fisher Scientific, cat. 35050061), 0.1 mg/mL primocin (InvivoGen, cat. ant-pm-2), 10% defined fetal bovine serum, heat inactivated (HyClone Laboratories Inc., cat. SH30070.03HI), 50% L-WRN conditioned media (ATCC, cat. CRL-3276), 1.25 mM N-Acetyl-L-cysteine (Sigma-Aldrich, cat. A9165), 10 mM nicotinamide (Sigma-Aldrich, cat. N0636), 1X B-27 supplement (Thermo Fisher Scientific, cat. 17504044), 1X N-2 supplement (Thermo Fisher Scientific, cat. 17502048), 10 microM Y-27632 dihydrochloride (Tocris Bioscience, cat. 1254), and 50 ng/mL human EGF recombinant protein (Thermo Fisher Scientific, cat. PHG0311). The 485176-168-R4-J1-PDC line was cultured in Panc media, which includes all 6C/Colon 1B media components plus 100 ng/mL human FGF-10 (Thermo Fisher Scientific, cat. 100-26), 500 nM SB-431542 (Selleckchem, cat. S1067), and gastrin (Tocris, cat. 3006).
[…]
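Further: spheroids exposed to the agents for 7 days before readout.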
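Wherever viability, T/C is given: percent of luminescence signal in DMSO vehicle wells taken as 100% viability.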

Work on `CC(C)n1c(=O)n(C)c2cnc3cc(F)c(-c4ccc(OCCCN5CCCCC5)nc4)cc3c21` + Cc1cnc(CNC(=O)c2c(=O)c3ccc(N4CCCN(C)CC4)nc3n3c2sc2ccccc23)cn1 yielded a pIC50 (second compound 0.0316 µM) of under 5.00, a pIC50 (second compound 0.1 µM) of under 5.00 and a pIC50 (second compound 0.316 µM) of under 5.00. The pIC50 (second compound 1 µM) was under 5.00, the pIC50 (second compound 3.16 µM) was under 5.00 and the pIC50 (second compound 10 µM) was 5.22. It also gave a viability, T/C (second compound 0.0316 µM, first compound 0.0316 µM) of 91.2%, a viability, T/C (second compound 0.0316 µM, first compound 0.1 µM) of 77.3% and a viability, T/C (second compound 0.0316 µM, first compound 0.316 µM) of 88.8%. The viability, T/C (second compound 0.0316 µM, first compound 1 µM) was 90.8%, the viability, T/C (second compound 0.0316 µM, first compound 3.16 µM) was 94.2% and the viability, T/C (second compound 0.0316 µM, first compound 10 µM) was 82.6%. The viability, T/C (second compound 0.1 µM, first compound 0.0316 µM) was 77.9%, the viability, T/C (second compound 0.1 µM, first compound 0.1 µM) was 76.1% and the viability, T/C (second compound 0.1 µM, first compound 0.316 µM) was 60.8%. For the same compound, the viability, T/C (second compound 0.1 µM, first compound 1 µM) was 68.2%, the viability, T/C (second compound 0.1 µM, first compound 3.16 µM) was 71% and the viability, T/C (second compound 0.1 µM, first compound 10 µM) was 62.9%. It also gave a viability, T/C (second compound 0.316 µM, first compound 0.0316 µM) of 73.3%, a viability, T/C (second compound 0.316 µM, first compound 0.1 µM) of 67.6% and a viability, T/C (second compound 0.316 µM, first compound 0.316 µM) of 59.1%. For the same compound, the viability, T/C (second compound 0.316 µM, first compound 1 µM) was 66.3%, the viability, T/C (second compound 0.316 µM, first compound 3.16 µM) was 71.6% and the viability, T/C (second compound 0.316 µM, first compound 10 µM) was 53%. It also gave a viability, T/C (second compound 1 µM, first compound 0.0316 µM) of 71.8%, a viability, T/C (second compound 1 µM, first compound 0.1 µM) of 55.7% and a viability, T/C (second compound 1 µM, first compound 0.316 µM) of 66.7%. It also gave a viability, T/C (second compound 1 µM, first compound 1 µM) of 62.4%, a viability, T/C (second compound 1 µM, first compound 3.16 µM) of 62.9% and a viability, T/C (second compound 1 µM, first compound 10 µM) of 42.7%. It also gave a viability, T/C (second compound 3.16 µM, first compound 0.0316 µM) of 56.9%, a viability, T/C (second compound 3.16 µM, first compound 0.1 µM) of 60.6% and a viability, T/C (second compound 3.16 µM, first compound 0.316 µM) of 67.6%. It also gave a viability, T/C (second compound 3.16 µM, first compound 1 µM) of 60.8%, a viability, T/C (second compound 3.16 µM, first compound 3.16 µM) of 58.1% and a viability, T/C (second compound 3.16 µM, first compound 10 µM) of 46.1%. For the same compound, the viability, T/C (second compound 10 µM, first compound 0.0316 µM) was 59.8%, the viability, T/C (second compound 10 µM, first compound 0.1 µM) was 57.2% and the viability, T/C (second compound 10 µM, first compound 0.316 µM) was 60.3%. It also gave a viability, T/C (second compound 10 µM, first compound 1 µM) of 59.2%, a viability, T/C (second compound 10 µM, first compound 3.16 µM) of 58% and a viability, T/C (second compound 10 µM, first compound 10 µM) of 39.8%.
